The source of these data is publication PMC7797525 (iScience, 2020).

For experiment [1], the target named is T1, RecA (Escherichia coli, UniProt P0A7G6).
T1 sequence (P0A7G6 2-353): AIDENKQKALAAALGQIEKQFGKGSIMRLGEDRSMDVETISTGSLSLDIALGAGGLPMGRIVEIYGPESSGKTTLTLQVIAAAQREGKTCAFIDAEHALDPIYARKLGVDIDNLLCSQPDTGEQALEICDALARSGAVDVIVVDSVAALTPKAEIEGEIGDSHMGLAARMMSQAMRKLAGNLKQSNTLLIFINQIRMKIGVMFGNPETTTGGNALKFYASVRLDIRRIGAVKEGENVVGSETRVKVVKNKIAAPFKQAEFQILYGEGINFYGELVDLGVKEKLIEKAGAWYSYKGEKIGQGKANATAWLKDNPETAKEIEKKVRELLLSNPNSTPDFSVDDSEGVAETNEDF
Briefly: isothermal titration calorimetry. The class given is binding.

For experiment [2], the target named is T2, RecA (Escherichia coli, UniProt P0A7G6, Y104A).
T2 sequence (P0A7G6 2-353 Y104A): T1 sequence (P0A7G6 2-353)
Briefly: isothermal titration calorimetry. Type of experiment: binding.

For the compound `Cc1ccc(C(=O)Nc2ccc(S(=O)(=O)O)c3cc(S(=O)(=O)O)cc(S(=O)(=O)O)c23)cc1NC(=O)c1cccc(NC(=O)Nc2cccc(C(=O)Nc3cc(C(=O)Nc4ccc(S(=O)(=O)O)c5cc(S(=O)(=O)O)cc(S(=O)(=O)O)c45)ccc3C)c2)c1` [cpd01, suramin], the figures for the Kd on RecA [1] and at RecA [2] were 17.6 µM and 40.2 µM, respectively.
Turning to `COc1cc(-c2ccc(N=Nc3ccc4c(S(=O)(=O)O)cc(S(=O)(=O)O)c(N)c4c3O)c(OC)c2)ccc1N=Nc1ccc2c(S(=O)(=O)O)cc(S(=O)(=O)O)c(N)c2c1O` [s05, Chicago sky blue], the equilibrium dissociation constant (Kd) at RecA [1] was 18.8 µM.
As to `Cc1cc(-c2ccc(/N=N/c3ccc4c(S(=O)(=O)O)cc(S(=O)(=O)O)c(N)c4c3O)c(C)c2)ccc1/N=N/c1ccc2c(S(=O)(=O)O)cc(S(=O)(=O)O)c(N)c2c1O` [s06, Evans blue], binding at RecA [1] was put at a Kd of 11.5 µM.
